The values below come from article PMC9336311 (Cell reports, 2022).

Test [1] has as its target CaMKII kinase domain (Homo sapiens, UniProt Q9UQM7). The test is described as follows: Coupled kinase assay with Syntide-2 as substrate. Type of test: biochemical. The following applies: saturating GluN2B S1303D or high levels of CaMKIIN.
For test [2], the target named is CaMKII kinase domain (Homo sapiens, UniProt Q9UQM7, D135N). The test is described as follows: Fluorescence polarization competition assay against GluN2B. As to conditions: FP competition, up to low millimolar concentrations. Type of test: binding. A general note: In fluorescence polarisation assays a small probe gives low polarisation when free and higher when bound to something large.
Sequence of CaMKII kinase domain (Homo sapiens, UniProt Q9UQM7, D135N) (Q9UQM7 7-274 D135N): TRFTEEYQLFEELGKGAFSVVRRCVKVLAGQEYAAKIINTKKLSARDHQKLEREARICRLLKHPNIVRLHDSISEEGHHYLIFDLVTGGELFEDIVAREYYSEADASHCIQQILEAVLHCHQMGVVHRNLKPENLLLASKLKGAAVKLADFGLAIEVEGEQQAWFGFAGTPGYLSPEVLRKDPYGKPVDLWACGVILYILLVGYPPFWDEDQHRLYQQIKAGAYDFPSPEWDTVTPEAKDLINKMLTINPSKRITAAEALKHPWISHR

For test [3], the target named is CaMKII kinase domain (D135N) (Homo sapiens, UniProt Q9UQM7, D135N). As to the kind of experiment: ITC binding to D135N CaMKII kinase domain. As to conditions: protein/peptide concentrations high enough to characterize a Kd of several hundred micromolar.
Sequence of CaMKII kinase domain (D135N) (Q9UQM7 7-274 D135N): as above

Sequence of CaMKII kinase domain (Homo sapiens, UniProt Q9UQM7) (Q9UQM7 7-274): as the sequence (Q9UQM7 7-274 D135N) above, with N129D counted along it

Take “MSEILPYGEDKMGRFGADPEGSDLSFSCRLQDTNSFFAGNQAKRPPKLGQIGRAKRVVIEDDRIDDVLKGMGEKPPSGV [CaMKIIN]”: the “effect on Syntide-2 phosphorylation” value at CaMKII kinase domain [1] was “completely inhibit”.

Take PLARTLSVAGLPGKK [Syntide-2]: on CaMKII kinase domain [2], the “competition with GluN2B peptide” value was “could not be competed off”. Also, the “binding in ITC” value in test [3] was “did not see any appreciable binding”.
